Laboratory results taken from US5486514A, “Carbamate derivatives” (Glaxo SpA, priority 1992, dated 1996).

How the values were obtained:
[1] = target: T1, CCK-B receptor (Cavia porcellus, UniProt H0VZC5); test: CCK receptor binding, CCK-B receptor (guinea pig cortex assay); settings: read-out: pKi CCK-B (converted)
T1 construct: CCK-B receptor (guinea pig cortex assay); from tissue; host or cells: guinea pig cortex
Protocol: (§1) The greater affinity of the compounds of the invention for the CCK-B receptor over the CCK-A receptor has also been established using the CCK receptor binding assays described by G Dal Fornos et al., J. Pharmcol. Exp & Ther. 261, 1056-1063, 1992.
(§2) The binding affinity of the compounds of the invention for the CCK-A receptor (Pancreas Assay) and CCK-B receptor (guinea pig cortex assay) was determined using the procedure of G Dal Forno et al J. Pharmacol. Exp & Ther. 261--1056-1063. The pKi values determined with representative compounds of invention were as follows: […]

[2] = target: CCK-A receptor; test: CCK receptor binding, CCK-A receptor (Pancreas Assay)
Protocol: as §1, §2

T1 sequence (H0VZC5 entry or part of it): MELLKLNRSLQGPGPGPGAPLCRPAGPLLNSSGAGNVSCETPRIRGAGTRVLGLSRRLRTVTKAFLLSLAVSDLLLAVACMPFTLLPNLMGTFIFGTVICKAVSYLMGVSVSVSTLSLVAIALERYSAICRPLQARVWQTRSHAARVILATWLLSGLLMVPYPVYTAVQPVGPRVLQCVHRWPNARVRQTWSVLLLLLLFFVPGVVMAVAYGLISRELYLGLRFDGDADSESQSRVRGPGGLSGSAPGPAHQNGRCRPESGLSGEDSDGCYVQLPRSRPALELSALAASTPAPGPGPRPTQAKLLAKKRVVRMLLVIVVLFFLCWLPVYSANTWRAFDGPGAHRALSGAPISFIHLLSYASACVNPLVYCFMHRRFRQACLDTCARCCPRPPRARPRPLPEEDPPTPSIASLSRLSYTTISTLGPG

Row | SMILES | Ki [1] | pKi CCK-A [2]
1 | CC(C)CCN1C(=O)C(NC(=O)Oc2ccccc2)C(=O)N(c2ccccc2)c2ccccc21 (racemic) [Example 1, 2,4-Dioxo-1-(3-methylbut-1-yl)-5-phenyl-3-(phenyloxycarbonylamino)-2,3,4,5-tetrahydro-1H-1,5-benzodiazepine] | 21.4 nM | 5.29
2 | CC(C)CCN1C(=O)C(NC(=O)Oc2cccc(N(C)C)c2)C(=O)N(c2ccccc2F)c2ccccc21 (racemic) [Example 8, 3-[3-(N,N-dimethylamino)phenyloxycarbonylamino]-2,4-dioxo-5-(2-fluorophenyl)-1-(3-methylbut-1-yl)-2,3,4,5-tetrahydro-1H-1,5-benzodiazepine] | 1.58 nM | 6.38
3 | CN(C)c1cccc(OC(=O)NC2C(=O)N(CCC(C)(C)C)c3ccccc3N(c3ccccc3F)C2=O)c1 (racemic) [Example 9, 3-[3-(N,N-dimethylamino)phenyloxycarbonylamino]-1-(3,3-dimethylbut-1-yl)-2,4-dioxo-5-(2-fluorophenyl)-2,3,4,5-tetrahydro-1H-1,5-benzodiazepine] | 1.02 nM | 6.75
4 | CC(C)CCN1C(=O)C(NC(=O)Oc2cccc(N(C)C)c2)C(=O)N(c2ccccc2)c2cc(Cl)c(Cl)cc21 (racemic) [Example 12, 7,8-Dichloro-3[3-(N,N-dimethylamino)phenyloxycarbonylamino]-2,4-dioxo-1-(3-methylbut-1-yl)-5-phenyl-2,3,4,5-tetrahydro-1H-1,5-benzodiazepine] | 7.41 nM | 5.49
5 | CC(C)CCN1C(=O)C(NC(=O)Oc2cccc(N(C)C)c2)C(=O)N(c2ccccc2)c2ccc(Cl)cc21 (racemic) [Example 24, 8-Chloro-3-[3-(N,N-dimethylamino)phenyloxycarbonylamino]-2,4-dioxo-1-(3-methylbut-1-yl)-5-phenyl-2,3,4,5-tetrahydro-1H-1,5-benzodiazepine] | 3.39 nM | 5.89
6 | COc1cccc(OC(=O)NC2C(=O)N(CCC(C)C)c3cc(Cl)c(Cl)cc3N(c3ccccc3)C2=O)c1 (racemic) [Example 25, 7,8-Dichloro-2,4-dioxo-3-(3-methoxyphenyloxycarbonyl)amino-1-(3-methyl-1-butyl)-5-phenyl-2,3,4,5-tetrahydro-1H-1,5-benzodiazepine] | 6.31 nM | 5.37
7 | COc1cccc(OC(=O)NC2C(=O)N(CCC(C)C)c3cc(Cl)ccc3N(c3ccccc3)C2=O)c1 (racemic) [Example 38, 8-Chloro-2,4-dioxo-3-(3-methoxyphenyloxycarbonyl)amino-1-(3-methyl-1-butyl)-5-phenyl-2,3,4,5-tetrahydro-1H-1,5-benzodiazepine] | 20 nM | 5.35
8 | CC(C)CCN1C(=O)C(NC(=O)Oc2cccc(N(C)C)c2)C(=O)N(c2ccccc2)c2ccccc21 (stereo not drawn) [Example 3] | 3.16 nM | 6.24
9 | CC(C)C(=O)CN1C(=O)C(NC(=O)Oc2cccc(N(C)C)c2)C(=O)N(c2ccccc2)c2ccccc21 (stereo not drawn) [Example 4, 3-[3-(N,N-dimethylamino)phenyloxycarbonylamino-2,4-dioxo-1-(3-methyl-2-oxo)but-1-yl)-5-phenyl-2,3,4,5-tetrahydro-1H-1,5-benzodiazepine] | 3.09 nM | 6.25
10 | CC(C)(C)CCN1C(=O)C(NC(=O)Oc2ccccc2)C(=O)N(c2ccccc2F)c2ccccc21 (stereo not drawn) [Example 7] | 3.89 nM | 6.43
11 | O=C(NC1C(=O)N(CCC2CCCC2)c2ccccc2N(c2ccccc2F)C1=O)Oc1ccccc1 (stereo not drawn) [Example 13] | 4.57 nM | 6.25
12 | CN(C)c1cccc(OC(=O)NC2C(=O)N(CC34CC5CC(CC(C5)C3)C4)c3ccccc3N(c3ccccc3)C2=O)c1 (stereo not drawn) [Example 20] | 12.3 nM | 5.48
